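Growth conditions: 96-well plates. Treatment: test compound, 48 hours, 5 concentrations. Analysis: linear interpolation between bracketing concentrations; unreached endpoints set to highest concentration. GI50 is the concentration that inhibits growth by half. The concentration for full growth arrest is given as TGI.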
Legend:
Test in all cases: growth of human tumour cells (NCI), 48 h
[1] = tested on: M14 melanoma
[2] = tested on: IGROV1 ovarian
[3] = tested on: KM12 colon
[4] = tested on: COLO 205 colon
[5] = tested on: NCI-H460 lung
[6] = tested on: NCI-H23 lung
[7] = tested on: EKVX NSCLC
[8] = tested on: T-47D breast
[9] = tested on: UACC-257 melanoma
[10] = tested on: RXF 393 renal

Structure (SMILES): CCN1CCCC(Nc2cc(C)nc(/N=C(/N)Nc3ccc(Cl)c(Cl)c3)n2)C1 (stereo unspecified)
- TGI [1]: 0.684 µM
- TGI [2]: 3.06 µM
- TGI [3]: 3.46 µM
- TGI [4]: 2.95 µM
- TGI [5]: 2.93 µM
- TGI [6]: 4.81 µM
- TGI [7]: 11.4 µM

Structure (SMILES): COc1cc(OC)cc(-n2c(N)c(-c3nc4ccccc4n3C)c3ccc([N+](=O)[O-])cc3c2=O)c1
- TGI [3]: > 100 µM
- TGI [4]: > 100 µM
- TGI [8]: > 100 µM
- TGI [5]: > 100 µM
- TGI [9]: > 100 µM
- TGI [6]: > 100 µM

Structure (SMILES): CC(=O)C12C[C@](C#N)(N3CCCCCC3)C1C=Cc1ccccc12 (stereo partly specified)
- TGI [1]: > 100 µM
- TGI [2]: > 100 µM
- TGI [3]: > 100 µM
- TGI [4]: > 100 µM
- TGI [8]: > 100 µM
- TGI [5]: > 100 µM
- TGI [9]: > 100 µM
- TGI [6]: > 100 µM
- TGI [7]: > 100 µM
- TGI [10]: > 100 µM

Structure (SMILES): Cn1c2c(c3ccccc31)CCN1C(=O)C3SC21C1C(=O)N(c2ccccc2)C(=O)C31 (stereo unspecified)
- TGI [1]: > 100 µM
- TGI [2]: > 100 µM
- TGI [3]: > 100 µM
- TGI [4]: > 100 µM
- TGI [8]: > 100 µM
- GI50 [5]: 90.6 µM
- TGI [5]: > 100 µM
- TGI [9]: > 69.2 µM
- TGI [6]: > 100 µM
- TGI [7]: > 100 µM
- TGI [10]: > 100 µM

Structure (SMILES): Cc1nn(C(=O)c2ccncc2)c2c1C(c1cccc([N+](=O)[O-])c1)SC(N)=N2 (stereo unspecified)
- TGI [1]: > 10 µM
- TGI [2]: > 10 µM
- TGI [3]: > 10 µM
- TGI [4]: > 10 µM
- TGI [8]: > 10 µM
- TGI [5]: > 10 µM
- TGI [9]: > 10 µM
- TGI [6]: > 10 µM
- TGI [7]: > 10 µM
- TGI [10]: > 10 µM

Structure (SMILES): CC1C2CC(C/C2=N/O)C1(C)C (stereo unspecified)
- TGI [1]: > 100 µM
- TGI [2]: > 100 µM
- TGI [3]: > 100 µM
- TGI [4]: > 100 µM
- TGI [8]: > 100 µM
- TGI [5]: > 100 µM
- TGI [9]: > 100 µM
- TGI [6]: > 100 µM
- TGI [7]: > 100 µM
- TGI [10]: > 100 µM

Structure (SMILES): [N-]=[N+]=NC[C@H]1OCO[C@H](CN=[N+]=[N-])[C@H]2OCCOCCOc3ccccc3OCCOCCO[C@@H]21
- TGI [1]: > 100 µM
- TGI [2]: > 100 µM
- TGI [3]: > 100 µM
- TGI [4]: > 100 µM
- TGI [8]: > 100 µM
- TGI [5]: > 100 µM
- TGI [9]: > 100 µM
- TGI [6]: > 100 µM
- TGI [7]: > 100 µM
- TGI [10]: > 100 µM

Structure (SMILES): O=C(/C=C(\O)c1ccccc1)/C(=C/C(=O)c1ccccc1)NN=C(c1ccccc1)c1ccccc1
- TGI [1]: 72.6 µM
- TGI [2]: > 100 µM
- TGI [3]: > 100 µM
- TGI [4]: > 100 µM
- TGI [8]: > 100 µM
- TGI [5]: 72.8 µM
- TGI [9]: 73.1 µM
- TGI [6]: 79.9 µM
- TGI [7]: > 100 µM
- TGI [10]: > 100 µM

Structure (SMILES): COc1cc([C@H]2Oc3c(OC)cc(CCCO)cc3[C@@H]2CO)ccc1O
- TGI [1]: > 100 µM
- TGI [2]: > 100 µM
- TGI [3]: > 100 µM
- TGI [4]: > 100 µM
- TGI [8]: > 100 µM
- TGI [5]: > 100 µM
- TGI [9]: > 100 µM
- TGI [6]: > 100 µM
- TGI [7]: > 100 µM
- TGI [10]: > 100 µM

Structure (SMILES): CC(C)C(C/C=C1/CC(CO)(COC(=O)C2CCCCC2)OC1=O)C(C)C (stereo unspecified)
- TGI [1]: 38.8 µM
- TGI [2]: 34.2 µM
- TGI [3]: 55.3 µM
- TGI [4]: 20.9 µM
- TGI [8]: 45.9 µM
- TGI [5]: 89.6 µM
- TGI [9]: 78.7 µM
- TGI [6]: 35.9 µM
- TGI [7]: 42.8 µM
- TGI [10]: 40.9 µM

Structure (SMILES): CC(C)=Nn1cnc(C(=N)C#N)c1N
- TGI [1]: > 100 µM
- TGI [2]: > 100 µM
- TGI [4]: > 100 µM
- TGI [5]: > 100 µM
- TGI [9]: > 100 µM
- TGI [6]: > 100 µM
- TGI [7]: > 100 µM
- TGI [10]: > 100 µM

Structure (SMILES): Oc1ccc(Cl)cc1C1=N/C(=N\C/N=C2\N=C(c3cc(Cl)ccc3O)CC(c3ccccc3)N2)NC(c2ccccc2)C1 (stereo unspecified)
- TGI [1]: > 100 µM
- TGI [2]: > 100 µM
- TGI [3]: > 100 µM
- TGI [4]: > 100 µM
- TGI [5]: > 100 µM
- TGI [9]: > 100 µM
- TGI [6]: > 100 µM
- TGI [7]: > 100 µM
- TGI [10]: > 100 µM

Structure (SMILES): CC(=O)Nc1ccc(C(=O)N2N=C(C)/C(=C/c3cccc([N+](=O)[O-])c3)C2=O)cc1
- TGI [1]: > 100 µM
- TGI [3]: > 100 µM
- TGI [4]: > 100 µM
- TGI [5]: > 100 µM
- TGI [9]: > 100 µM
- TGI [6]: > 100 µM
- TGI [7]: > 100 µM

Structure (SMILES): C=CCC1(CC)C(=O)NC(=O)NC1=O
- TGI [1]: > 100 µM
- TGI [2]: > 100 µM
- TGI [3]: > 100 µM
- TGI [4]: > 100 µM
- TGI [5]: > 100 µM
- TGI [9]: > 100 µM
- TGI [6]: > 100 µM
- TGI [7]: > 100 µM
- TGI [10]: > 100 µM

Structure (SMILES): COc1cc(OC)cc(-c2n/c(=C\c3c(O)[nH]c4ccc(Cl)cc34)cc3c2=Nc2ccccc2-3)c1
- GI50 [1]: 4.01 µM
- TGI [1]: 13.7 µM
- GI50 [2]: 3.46 µM
- TGI [2]: 10.1 µM
- GI50 [3]: 3.95 µM
- TGI [3]: 14.1 µM
- GI50 [8]: 4.39 µM
- TGI [8]: 17 µM
- GI50 [5]: 3.26 µM
- TGI [5]: 10.5 µM
- GI50 [9]: > 100 µM
- TGI [9]: > 100 µM
- GI50 [6]: 2.34 µM
- TGI [6]: 6.06 µM
- GI50 [7]: 13.6 µM
- TGI [7]: 37.8 µM
- GI50 [10]: 6.05 µM
- TGI [10]: 21.4 µM

Structure (SMILES): COP(=O)(OC)C(NC=O)P(=O)(OC)OC
- TGI [1]: > 100 µM
- TGI [2]: > 100 µM
- TGI [4]: > 100 µM
- TGI [8]: > 100 µM
- TGI [5]: > 100 µM
- TGI [6]: > 100 µM
- TGI [7]: > 100 µM
- TGI [10]: > 100 µM

Structure (SMILES): O=C(N/N=C/c1ccc(Cl)cc1)c1cc(I)cc(I)c1O
- TGI [1]: > 100 µM
- TGI [2]: > 100 µM
- TGI [3]: > 100 µM
- TGI [4]: > 100 µM
- TGI [8]: > 100 µM
- TGI [9]: > 100 µM
- TGI [6]: > 100 µM
- TGI [7]: > 100 µM
- TGI [10]: > 100 µM

Structure (SMILES): CC(C)(C)OC(=O)NCC(=O)NC1C/C(=N\O)c2sccc21 (stereo unspecified)
- TGI [1]: > 100 µM
- TGI [2]: > 100 µM
- TGI [4]: > 100 µM
- TGI [8]: > 100 µM
- TGI [5]: > 100 µM
- TGI [9]: > 100 µM
- TGI [6]: > 100 µM
- TGI [7]: > 100 µM
- TGI [10]: > 100 µM

Structure (SMILES): CSc1ncc2c(n1)-c1ccccc1OC2NC(C)(C)C (stereo unspecified)
- TGI [1]: > 100 µM
- TGI [3]: > 100 µM
- TGI [4]: > 100 µM
- TGI [8]: > 100 µM
- TGI [5]: > 100 µM
- TGI [9]: > 100 µM
- TGI [6]: > 100 µM
- TGI [7]: > 100 µM
- TGI [10]: > 100 µM

Structure (SMILES): COC(=O)C1=C(C)N(NC(=O)c2ccccc2)C2(O)CCCC(=O)C12C (stereo unspecified)
- TGI [1]: > 100 µM
- TGI [2]: > 100 µM
- TGI [3]: > 100 µM
- TGI [4]: > 100 µM
- TGI [9]: > 100 µM
- TGI [6]: > 100 µM
- TGI [10]: > 100 µM

Structure (SMILES): Cc1ccnc(NC(=S)Nc2cccc(Cl)c2)c1
- TGI [1]: > 100 µM
- TGI [2]: > 100 µM
- TGI [3]: > 100 µM
- TGI [4]: > 100 µM
- TGI [8]: > 100 µM
- TGI [5]: > 100 µM
- TGI [9]: > 100 µM
- TGI [7]: > 100 µM
- TGI [10]: > 100 µM
